Experimental data reported in US20180105840A1, “PROCESS FOR INDUSTRIAL PRODUCTION OF CHIRAL-1,1-DIFLUORO-2-PROPANOL” (PUBLIC UNIVERSITY CORPORATION TOYAMA PREFECTURAL UNIVERSITY, priority 2015, published 2018).

System: Ogataea polymorpha strain NBRC0799-derived carbonyl reductase
Test: Reactivity of purified Ogataea polymorpha strain NBRC0799-derived carbonyl reductase to substrates (reduction reaction, NADH decrease at 340 nm)
Type: biochemical
Details: (a) Reduction reaction; substrate 50 mM, NADH 0.1 mM, 168 mM sodium phosphate buffer pH 6.0, 30° C.; enzyme activity with acetone as substrate defined as 100%
Procedure: For enzyme activity measurement, NADH was added at a final concentration of 0.1 mM to 168 mM sodium phosphate buffer (pH 6.0) containing an enzyme or a microorganism, and 1,1-difluoroacetone was added at a final concentration of 50 mM to this reaction solution to initiate the reaction (reaction solution volume: 1 mL). The reaction was conducted at 30° C., and decreases in NADH were monitored with a spectrophotometer (V-630BIO, JASCO Corporation, Japan) as changes in absorbance at 340 nm. It should be noted that the enzyme activity was determined assuming that the amount of enzyme required to catalyze the oxidation of 1 μmol NADH per minute was defined as 1 U (unit).
To 168 mM sodium phosphate buffer (pH 6.0) containing the enzyme purified from Ogataea polymorpha strain NBRC0799, NADH was added at a final concentration of 0.1 mM, and the substrates indicated in Table B below were each added at a final concentration of 50 mM to this reaction solution to initiate the reaction (reaction solution volume: I mL). The reaction was conducted at 30° C., and decreases in NADH were measured with a spectrophotometer (V-630BIO, JASCO Corporation, Japan) as changes in absorbance at 340 nm.
Relative activity refers to the ratio of enzyme activity (conversion speed) for each substrate in comparison with the enzyme activity when using acetone as a substrate, which is defined to be 100%. When 1,1-difluoroacetone or 1,1,1-trifluoroacetone is provided as a substrate, the conversion speed per se of the enzyme is reduced (many hours are required to complete the reaction). In the case of acetone, its two methyl groups are equal, so that acetone will be captured by a recognition site in the enzyme without distinction between these two methyl groups. However, in the case of 1,1-difluoroacetone and 1,1,1-trifluoroacetone, their capture by an active site in the enzyme would require recognition between a fluoromethyl group and a methyl group, so that the speed of their capture becomes slower. On the other hand, in the case of 1,3-difluoroacetone, the fluorine atoms introduced thereinto would alter electronegativity and so on, when compared to acetone.

| SMILES | Relative Activity (%) |
| --- | --- |
| CC(=O)C(F)(F)F [1,1,1-Trifluoroacetone] | 50 |
| CC(=O)C(F)F [1,1-Difluoroacetone] | 58 |
| O=C(CF)CF [1,3-Difluoroacetone] | 52 |
| CCC(C)=O [2-Butanone] | 132 |
| CC(=O)CC(F)(F)F [4,4,4-Trifluoro-2-butanone] | 228 |
| CC=O [Acetaldehyde] | 330 |
| CC(C)=O [Acetone, reference compound] | 100 |
| CCCC=O [Butyraldehyde] | 193 |
| CC(=O)CF [Fluoroacetone] | 211 |
| CCC=O [Propionaldehyde] | 141 |

Same assay, conditions: substrate 50 mM, NADH 0.1 mM, pH 6.0, 30° C.

| SMILES | conversion speed of the enzyme in comparison with acetone as a substrate |
| --- | --- |
| CC(=O)C(F)(F)F [1,1,1-Trifluoroacetone] | reduced |
| CC(=O)C(F)F [1,1-Difluoroacetone] | reduced |
